{"source": "patent US20220409510A1", "about": "“Polypeptides And Methods For Improving Skin Conditions” (Interk Peptide Therapeutics Limited, priority 2018, published 2022)", "key": {"[1]": {"system": "TGFβRII", "test": "TGFβRII expression in UV irradiated dermal fibroblasts (Western analysis)", "type": "cell-based, human", "conditions": "1, 2.5, 5 and 10 μM added immediately after UV; 5 h post UV; primary fibroblasts; FIG. 3B", "method": "The influence of the polypeptide IK34720 (SEQ ID NO: 3) on TGFβRII phosphorylation was assessed using the following protocol.\nHuman skin dermal fibroblasts were cultured from keratome biopsies of healthy adult human skin. Cells were between passages three and six. For UV irradiation, subconfluent cells were washed once with phosphate-buffered saline (PBS) and irradiated with UV. Immediately following irradiation, negative control (vehicle) or 1 μM, 2.5 μM, 5 μM and 10 μM of IK34720 (“1K” in FIG. 3B, SEQ ID NO: 3) were added to the cell cultures.\nFor Western analysis, nuclear extracts were prepared, membrane fractions were prepared and resolved on 8% SDS-polyacrylamide gel electrophoresis, transferred to polyvinylidene difluoride membrane, and reacted with primary antibodies. Blots were visualized and quantified."}, "[2]": {"system": "8-OHdG formation in the skin", "test": "UV-induced oxidative stress (8-OHdG/8oxodG immunohistochemistry) in mouse skin", "type": "in vivo, Skh:hr1 hairless mice", "conditions": "topical immediately after 3 MED UVR; IK34720 20, 100 or 200 μg, Calcitriol 11.4 pmol/cm2; 3 h post-UVR; vs vehicle", "method": "8-hydroxy-2′-deoxyguanosine or 8-oxo-7,8-dihydro-2′-deoxyguanosine (8-OHdG/8-oxodG) is one of the predominant forms of free radical-induced in oxidative lesions with the concentrations of 8-OHdG within a cell being a measurement of oxidative stress. The role of the polypeptide IK34720 (SEQ ID NO: 3) in UV-induced oxidative stress was assessed using the following protocol.\nFemale Skh:hr1 hairless mice were exposed to solar simulated UV-irradiation (UVR) by exposure to one fluorescent UVB tube (Philips TL40W 12R/S, Eindhoven, The Netherlands) in combination with 6 UVA tubes (Hitachi 40W F40T 10/BL, Tokyo, Japan). The UVA and UVB irradiation was filtered through a 0.125 mm cellulose acetate sheet (Grafix Plastics, Cleveland, Ohio) as previously described (Dixon KM et al., Biochem Mol Biol, 2007, 103(3-5):451-6). […]\nBiopsies were taken from UV-irradiated dorsal skin 3 h post-UVR and fixed in Histochoice fixative (Amresco, Solon Ohio) for 6 h. […] Sections were subjected to routine hematoxylin and eosin staining for visualization of sunburn cells at 40× magnification, and the number of sunburn cells per linear millimetre of skin section recorded.\nLevels of 8-oxo-2′-deoxyguanosine (8oxodG) indicative of oxidative stress were detected by immunohistochemistry and image analysis (Dixon KM et al., Cancer Prey Res 2011, 4(9):1485-94) as set out below. […]"}, "[3]": {"system": "wound (skin punch, ID 12 mm)", "test": "Murine wound model, percentage closure of the wound", "type": "in vivo, ICR mice", "conditions": "topical 10 ug per mouse daily for 10 consecutive days; Day 5 to Day 11; vs negative control (PBS)", "from_the_text": "FIGS. 1 and 2 illustrate the effect of polypeptides IK34720 (SEQ ID NO: 3—RSKAKNPLYRRRRRRRRR) (FIG. 1) and the dextro-reverso sequence IK236770 (SEQ ID NO: 4—rrrrrrrrrylpnkaksr) (FIG. 2), on wound healing over 10 days in a murine wound model in accordance with the following protocol.\nThree groups of 8 male ICR mice with a mean weight of 22 g (±2 g) were used in the present study. The animals were housed in individual cages during the study. Under isoflurane gas anaesthesia, the shoulder and back region of each animal was shaved and a sharp punch (ID 12 mm) was used to induce a wound by removing the skin, including panniculus carnosus and adherent tissues on Day 1.\nFollowing induction of the wound the polypeptides IK34720 and IK236770 were topically administered to the site of the wound at a dosage of 10 μg per animal. […] An additional group which comprised the administration of Phosphate buffered Saline (PBS) at pH 7.4 was used as a negative control.\nThe wound healing was analysed on Days 5, 7, 9 and 11 by tracing the periphery of the wound onto clear plastic sheets with the wound area calculated by an Image analyzer ProPlus (Media Cybernetics, Version 4.5.0.29. The percentage closure of the wound (%) was calculated. Percentage closure of the wound was determined on 5, 7, 9 and 11. ANOVA and Dunnett's test were applied to test significant significance between the treated groups (peptide and positive control groups) and the negative control group at each time point of measurement. Differences were considered statistically significant at P<0.05, and are indicated by *."}, "[4]": {"system": "CPDs in human skin explants", "test": "CPD formation in human skin explants after UV-irradiation", "type": "cell-based", "method": "Human skin removed at elective surgery was cleaned, dissected and cut into pieces of approx. 5 mm×5 mm. Each piece was placed in a well of a 96 well plate, with individual plates prepared to assess the effects 3 hrs post treatment. All samples were performed in triplicate for each treatment. Skin was subjected to UV-radiation from solar-simulated UV source for 1.5 h (UVR), or non-irradiation (SHAM). Given that human skin is thicker than mouse skin, human skin explants were exposed to a radiation dose three times higher than that used for mouse skin, i.e., 20 J/cm2 versus 7 J/cm2, respectively, and the output spectrum of the laboratory solar simulator has previously been reported (Rybchyn MS et al, J Invest Dermatol. 2018 May; 138(5):1146-1156) and treated immediately after with a vehicle control, Calcitriol (1 nM) or the polypeptide IK34720 (SEQ ID NO: 3) at concentrations of 50 μM, 250 μM or 500 uM.\nSamples harvested at 3 hrs were fixed, section, stained and quantified as described in Example 5."}}}
{"sequence": "RSKAKNPLYRRRRRRRRR [IK34720, 18-residue polypeptide: … with a C-terminal polyarginine region of 8 arginines]", "values": [{"measurement": "TGFβRII expression", "setting": "[1]", "value": "restored TGFβRII expression in UV treated cells"}, {"measurement": "8-OHdG formation in the skin", "setting": "[2]", "value": "inhibits 8-OHdG formation"}, {"measurement": "wound closure percentage", "setting": "[3]", "value": "statistically significant increase (P<0.05) in wound closure percentage"}, {"measurement": "percentage of CPD positive cells", "setting": "[4]; 500 μM, 3 hrs, two individuals, FIG. 13A and B", "value": "statistically significantly reduced"}, {"measurement": "cells having CPDs (stained cells)", "setting": "[4]; 3 hrs post irradiation/treatment, Calcitriol 1 nM, IK34720 50, 250 or 500 uM, FIG. 12", "value": "fewer stained cells"}]}
